TGI and GI50 data for 18 molecules are collected here from PubChem BioAssay (NCI).

The structures appear in SMILES notation.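 48-hour exposure; five concentrations; linearly interpolated endpoints. GI50 marks 50% less growth. TGI denotes the concentration required for complete inhibition of growth.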 Where only a bound is given, the exact number is not on record here.

Test systems include SK-MEL-28 melanoma; UACC-257 melanoma; SK-OV-3 ovarian; IGROV1 ovarian; OVCAR-8 ovarian; MALME-3M melanoma; LOX IMVI melanoma; SN12C renal; KM12 colon; BT-549 breast.
Common to all, as to test: DTP human tumour cell line panel, 48 h

Broadly, the TGI is the concentration giving total growth inhibition. Consider `CCOC(=O)/C=C/c1c(C)[nH]c(=O)[nH]c1=O`, for which the TGI in the experiment with SK-MEL-28 melanoma is > 250 µM; in the experiment on UACC-257 melanoma, > 250 µM; in the experiment on SK-OV-3 ovarian, > 141 µM; with IGROV1 ovarian it was > 250 µM; in the experiment on OVCAR-8 ovarian it was > 250 µM; in the experiment on MALME-3M melanoma, > 250 µM. Besides, the total growth inhibition concentration (TGI) in the experiment on LOX IMVI melanoma, in the experiment with SN12C renal and with KM12 colon was > 250 µM in each case.
Consider `O=C(NN1C(=O)C(Cl)C1c1cccc([N+](=O)[O-])c1)c1ccccc1O` (stereo unspecified), for which the TGI in the experiment on SK-MEL-28 melanoma, in the experiment with UACC-257 melanoma, in the experiment on SK-OV-3 ovarian, in the experiment with IGROV1 ovarian, with OVCAR-8 ovarian and in the experiment with MALME-3M melanoma was > 100 µM each time. Further, the TGI in the experiment on SN12C renal and in the experiment with KM12 colon was > 100 µM each time.
In the case of `c1ccc2c(c1)NCc1cc3ccccc3nc1O2`, the TGI in the experiment with SK-MEL-28 melanoma, in the experiment on UACC-257 melanoma, with SK-OV-3 ovarian, in the experiment on IGROV1 ovarian, in the experiment on OVCAR-8 ovarian and in the experiment on MALME-3M melanoma was > 100 µM each time. Further, the TGI in the experiment on LOX IMVI melanoma, in the experiment on SN12C renal and with KM12 colon was > 100 µM throughout.
For `N#[N+]c1c([O-])c2ccccc2c2ccccc12`, the TGI with SK-MEL-28 melanoma, in the experiment with UACC-257 melanoma, in the experiment with SK-OV-3 ovarian, in the experiment on BT-549 breast, in the experiment on IGROV1 ovarian and with OVCAR-8 ovarian was > 100 µM each time. In addition, the figures for the TGI in the experiment with LOX IMVI melanoma, in the experiment on SN12C renal and in the experiment with KM12 colon were 86 µM, > 100 µM and > 100 µM, respectively.
`O=C1C(CO)=C[C@H](O)[C@H]2O[C@@H]12`: the TGI in the experiment with SK-MEL-28 melanoma stood at 294 µM; in the experiment on UACC-257 melanoma, 387 µM; in the experiment with SK-OV-3 ovarian, 561 µM; in the experiment on IGROV1 ovarian it was 473 µM; in the experiment with OVCAR-8 ovarian, 325 µM; in the experiment with MALME-3M melanoma it was 319 µM. The TGI was > 393 µM in the experiment with LOX IMVI melanoma, 265 µM in the experiment with SN12C renal and 219 µM with KM12 colon.
A word on the GI50: it is the concentration at which growth is held to half of that of the control. In the case of `Cc1cn(-c2cccc(NC(=O)c3ccc(C)c(Nc4nccc(-c5cccnc5)n4)c3)c2)cn1`, the GI50 is 1.8 µM with SK-MEL-28 melanoma; 1.59 µM in the experiment on UACC-257 melanoma; 2.03 µM in the experiment with SK-OV-3 ovarian; 1.49 µM with BT-549 breast; 2.08 µM with IGROV1 ovarian; 1.1 µM with OVCAR-8 ovarian. For the same molecule, the GI50 in the experiment with MALME-3M melanoma was 1.51 µM; in the experiment on LOX IMVI melanoma, 1.73 µM; in the experiment with SN12C renal, 2.1 µM; with KM12 colon, 2.1 µM. In addition, the TGI in the experiment on SK-MEL-28 melanoma worked out at 3.18 µM; with UACC-257 melanoma, 3 µM; in the experiment on SK-OV-3 ovarian it was 3.52 µM; in the experiment with BT-549 breast, 3.11 µM; in the experiment on IGROV1 ovarian, 3.92 µM; with OVCAR-8 ovarian, 2.5 µM. Also, the TGI stood at 2.99 µM in the experiment on MALME-3M melanoma, 3.48 µM with LOX IMVI melanoma, 4.7 µM in the experiment with SN12C renal and 4.98 µM in the experiment on KM12 colon.
For `C/C(=N\NC(=S)N1CCC(N2CCCCC2)CC1)c1ccccn1`, the TGI in the experiment with SK-MEL-28 melanoma was 13.7 µM; with UACC-257 melanoma, 8.93 µM; in the experiment with SK-OV-3 ovarian it was 11.6 µM; in the experiment with IGROV1 ovarian it was 12.3 µM; with OVCAR-8 ovarian, 11.7 µM; in the experiment on MALME-3M melanoma, > 100 µM. Besides, the TGI in the experiment with LOX IMVI melanoma came to 8.28 µM; in the experiment with SN12C renal, 8.17 µM; with KM12 colon, 9.53 µM.
On to `O=c1nc2ccc([N+](=O)[O-])cc2[n+]([O-])[nH]1`, for which the TGI in the experiment on SK-MEL-28 melanoma, with UACC-257 melanoma, in the experiment with SK-OV-3 ovarian, with BT-549 breast, in the experiment with IGROV1 ovarian and in the experiment on OVCAR-8 ovarian was > 100 µM in each case. In addition, the TGI with MALME-3M melanoma, with LOX IMVI melanoma, in the experiment with SN12C renal and in the experiment with KM12 colon was > 100 µM in each case.
Take `CCOC(=O)NC(Nc1cc(Cl)ccc1OC)(C(F)(F)F)C(F)(F)F`: the TGI in the experiment on SK-MEL-28 melanoma, in the experiment with UACC-257 melanoma, in the experiment on SK-OV-3 ovarian, in the experiment with BT-549 breast, in the experiment on IGROV1 ovarian and in the experiment with MALME-3M melanoma was > 100 µM each time. In addition, the TGI in the experiment with LOX IMVI melanoma, in the experiment on SN12C renal and with KM12 colon was > 100 µM throughout.
In the case of `COc1cc(-c2ccc(N=Nc3ccc4c(S(=O)(=O)O)cc(S(=O)(=O)O)c(N)c4c3O)c(OC)c2)ccc1N=Nc1ccc2c(S(=O)(=O)O)cc(S(=O)(=O)O)c(N)c2c1O`, the TGI with SK-MEL-28 melanoma, in the experiment on UACC-257 melanoma, with SK-OV-3 ovarian, in the experiment with IGROV1 ovarian, in the experiment on OVCAR-8 ovarian and with MALME-3M melanoma was > 100 µM in each case. Also, the TGI with LOX IMVI melanoma, in the experiment with SN12C renal and with KM12 colon was > 100 µM throughout.
In the case of `COc1ccc(C2=[S+]C(c3ccccc3)(c3ccccc3)c3ccccc32)cc1`, the TGI in the experiment with SK-MEL-28 melanoma was 58.5 µM; in the experiment on UACC-257 melanoma, 46.9 µM; in the experiment on SK-OV-3 ovarian it was > 100 µM; in the experiment on BT-549 breast, 53.9 µM; in the experiment on IGROV1 ovarian, > 100 µM; in the experiment with OVCAR-8 ovarian, > 100 µM. For the same molecule, the TGI was 46.1 µM with MALME-3M melanoma, 31.9 µM in the experiment with LOX IMVI melanoma, 37.1 µM with SN12C renal and 31.1 µM in the experiment with KM12 colon.
On to `COc1cccc2c1C(=O)c1c(O)c3c(c(O)c1C2=O)C[C@@](O)(C(=O)COC(=O)c1ccccc1)C[C@@H]3OC1CC(N)C(O)C(C)O1` (stereo partly specified), for which the GI50 in the experiment with SK-MEL-28 melanoma is 0.534 µM; in the experiment with UACC-257 melanoma, 0.262 µM; in the experiment on SK-OV-3 ovarian, 0.264 µM; with BT-549 breast, 0.7 µM; in the experiment on OVCAR-8 ovarian, 0.154 µM; in the experiment on MALME-3M melanoma it was 0.136 µM. Also, the 50% growth inhibitory concentration (GI50) in the experiment on SN12C renal was 0.0936 µM; in the experiment on KM12 colon it was 0.215 µM. Further, the TGI in the experiment on SK-MEL-28 melanoma is 1.95 µM; in the experiment with UACC-257 melanoma, 1.27 µM; in the experiment with SK-OV-3 ovarian, 1.44 µM; in the experiment on BT-549 breast it was 2.32 µM; in the experiment with OVCAR-8 ovarian it was 1.18 µM; with MALME-3M melanoma, 0.652 µM. Besides, the TGI in the experiment with SN12C renal stood at 1.12 µM; in the experiment on KM12 colon it was 1.23 µM.
Regarding `c1ccc2c(c1)c1ccccc1n2Cn1c2ccccc2c2ccccc21`, the TGI in the experiment on SK-MEL-28 melanoma, in the experiment with UACC-257 melanoma, in the experiment on BT-549 breast, with IGROV1 ovarian, in the experiment with OVCAR-8 ovarian and in the experiment on MALME-3M melanoma was > 100 µM in each case. Besides, the TGI with LOX IMVI melanoma, in the experiment with SN12C renal and with KM12 colon was > 100 µM each time.
Regarding `C/C(=N\NC(=O)c1ccc(Cl)cc1)c1nc2ncccc2[nH]1`, the TGI in the experiment with SK-MEL-28 melanoma is > 100 µM; with UACC-257 melanoma it was 79.9 µM; with SK-OV-3 ovarian, 60.5 µM; in the experiment with BT-549 breast, 85.5 µM; in the experiment on IGROV1 ovarian it was > 100 µM; in the experiment on OVCAR-8 ovarian it was 58.6 µM. Moreover, the TGI in the experiment on MALME-3M melanoma was 48.9 µM; in the experiment on LOX IMVI melanoma, 57.8 µM; in the experiment with SN12C renal it was > 100 µM; in the experiment with KM12 colon, > 100 µM.
In the case of `O=C(N/N=C\c1cccc2ccccc12)Nc1ccccc1`, the TGI in the experiment with SK-MEL-28 melanoma, in the experiment on UACC-257 melanoma, with SK-OV-3 ovarian, in the experiment on BT-549 breast, with IGROV1 ovarian and in the experiment with OVCAR-8 ovarian was > 100 µM in each case. In addition, the TGI in the experiment with MALME-3M melanoma, with LOX IMVI melanoma, with SN12C renal and with KM12 colon was > 100 µM throughout.
Take `O=c1[nH]c(SCc2cccc([N+](=O)[O-])c2)nc2nc[nH]c12`: the TGI in the experiment on SK-MEL-28 melanoma, with UACC-257 melanoma, with SK-OV-3 ovarian, in the experiment on BT-549 breast, in the experiment with IGROV1 ovarian and in the experiment on OVCAR-8 ovarian was > 100 µM throughout. The TGI in the experiment on MALME-3M melanoma, in the experiment with LOX IMVI melanoma, with SN12C renal and in the experiment with KM12 colon was > 100 µM throughout.
Regarding `O=c1oc(-c2ccc(O)cc2)cc2cc(O)ccc12`, the TGI in the experiment on UACC-257 melanoma is > 100 µM; with SK-OV-3 ovarian, 74.9 µM; in the experiment with BT-549 breast, 62.1 µM; in the experiment on IGROV1 ovarian, > 100 µM; in the experiment on OVCAR-8 ovarian, > 100 µM; in the experiment on MALME-3M melanoma, 72.3 µM. The TGI in the experiment on SN12C renal stood at 65.1 µM; in the experiment with KM12 colon it was 68 µM.
For `Cc1ccc(Cl)cc1N=NC(=O)NNc1cc(Cl)ccc1C`, the TGI with SK-MEL-28 melanoma worked out at 38.9 µM; in the experiment on SK-OV-3 ovarian it was 49.5 µM; in the experiment on BT-549 breast it was 43.9 µM; in the experiment with IGROV1 ovarian it was 38.3 µM; in the experiment on MALME-3M melanoma, 64.6 µM; in the experiment on SN12C renal it was 80.8 µM. Also, the TGI in the experiment on KM12 colon was > 100 µM.
